Entries after “also recorded” stand apart in the source; their conditions may differ.
How the values were obtained:
C. neoformans [1] = assay: Antifungal (cidal) activity assay, loss of cell viability; assay type: cell-based, Cryptococcus neoformans; conditions: for ED50 (95% confidence limit) C. neoformans: Example 2, 1.5 hours, 37°, 10 mM Na phosphate buffer pH 7.4; for Loss of Cell viability (%): 6.25 μM
Source text: (§1) Azole-sensitive (# 2-76) and azole-resistant (# 12-99) clinical isolates of C. albicans were a gift from Dr. Theodore C. White (University of Washington and Seattle Biomedical Research Institute, Seattle, Wash.). An azole-sensitive Candida glabrata (C. glabrata) was purchased from ATCC (ATCC 90030) and its azole-resistant counterpart, clinical isolate 65C, was obtained from Dr. John E. Bennett (National Institute of Allergy and Infectious Diseases, Bethesda, Md.). A clinical isolate of Candida krusei (C. krusei) was obtained from the Erie County Medical Center, Buffalo, N.Y. Amphotericin B-sensitive (CN2) and -resistant (CN2843) C. neoformans strains were obtained from AIDS patients with cryptococcal meningitis and were generously provided by Dr. John H. Rex (University of Texas Medical School, Houston, Tex.). Additionally, Saccharomyces cerevisiae (S. serevisiae) strain S288C was provided by Dr. D. Kosman, Department of Biochemistry, University at Buffalo, the State University of New York. All fungi were streaked and grown on SAB plates at 37° C., except S. cerevisiae, which was grown at 30° C. until large colonies were formed. One colony was then picked and resuspended in Na phosphate buffer (pH 7.4) and the concentration was adjusted to 1×10^5 cell/ml for the antifungal assay described below.
(§2) Two fold serial dilutions of each peptide (ranging from 100 μM down to 1.5625 μM) in 20 μl of 10 mM Na phosphate buffer, pH 7.4, were incubated with an equal volume of bacterial or fungal strain (10^5 cells/ml) for 1.5 hours at 30° C. for S. cerevisiae and 37° C. for the rest of strains tested. At the end of incubation, the samples were diluted 20 fold and aliquots (˜120 cells) of each sample were plated on appropriate plates depending on the strain tested, as indicated above. Plates were incubated for 1 to 7 days aerobically or anaerobically, depending on the strain tested. Colonies were then counted, and the loss of cell viability was plotted as a function of protein concentration. Fungicidal activities against C. albicans and C. neoformans were also tested at 4° C.
(§3) To test the effect of inhibitors of oxidative phosphorylation in the mitochondrial system on peptide-induced killing, C. albicans and C. neoformans (CN2) were preincubated with either 20 mM sodium azide or 300 μM CCCP for 2 hours at 37° C. The cidal assays were then carried out as described above. In separate control experiments, both inhibitors were evaluated for their toxicity toward C. albicans and C. neoformans (CN2) in the absence of peptides. At these concentrations, neither compound had any cidal effect. In addition, the fungicidal activities of MUC7 20-mer and Hsn-5 (25 μM) in 10 mM Na phosphate buffer (pH 7.4) in the presence of varying concentrations (1-50 mM) of Ca^++ (as CaCl2) or Mg^++ (as MgCl2) were examined.
(§4) A time course study of peptide-induced killing was statistically analyzed by student t-test.
(§5) Two fold serial dilutions of each peptide (ranging from 50 or 25 μM down to 1.5625 μM) in 20 μl of 10 mM Na phosphate buffer, pH 7.4, were incubated with an equal volume of fungal strain (10^5 cells/ml, also in Na phosphate buffer) for 1.5 hours at 37°. At the end of incubation, the samples were diluted 20 fold with the same buffer and aliquots (˜150 cells) of each sample were plated on SAB plates. Plates were incubated for 1 to 2 days for C. albicans and C. neoformans, respectively. Colonies were then counted, and the loss of cell viability was plotted as a function of protein concentration. The statistical analysis was as described in Example 1.

C. albicans [2] = assay: as above; assay type: cell-based, Candida albicans; conditions: for Loss of Cell viability (%): 6.25 μM; for ED50 (95% confidence limit) C. albicans: Example 2, 1.5 hours, 37°, 10 mM Na phosphate buffer pH 7.4
Source text: as §1, §2, §3, §4, §5

A. actinomycetemcomitans = assay: Antibacterial (cidal) activity assay, loss of cell viability; assay type: cell-based, Actinobacillus actinomycetemcomitans
Protocol: (§6) The following bacterial strains were tested: Streptococcus mutans (S. mutans) GS-5, Streptococcus gordonii (S. gordonii) Challis, Escherichia coli (E. coli) HB101, Pseudomonas aeruginosa (P. aeruginosa) ATCC 17648, Actinobacillus actinomycetemcomitans (A. actinomycetemcomitans) NCTC9710, Porphyromonas gingivalis (P. gingivalis) 381 and W50. S. mutans, S. gordonii, A. actinomycetemcomitans and P. aeruginosa were grown anaerobically by candle jar extinction at 37° C. on TSB plates. P. gingivalis was grown in anaerobic chamber at 37° C. on sheep blood agar plates. E. coli was grown aerobically at 37° C. on LB agar plates.
(§7) Two fold serial dilutions of each peptide (ranging from 100 μM down to 1.5625 μM) in 20 μl of 10 mM Na phosphate buffer, pH 7.4, were incubated with an equal volume of bacterial or fungal strain (10^5 cells/ml) for 1.5 hours at 30° C. for S. cerevisiae and 37° C. for the rest of strains tested. At the end of incubation, the samples were diluted 20 fold and aliquots (˜120 cells) of each sample were plated on appropriate plates depending on the strain tested, as indicated above. […] Colonies were then counted, and the loss of cell viability was plotted as a function of protein concentration. […]
as §4

fungi or bacteria = assay: Antifungal and antibacterial activity assays, overall statements; assay type: cell-based
Protocol: as §2, §4

C. albicans [3] = assay: Fluorescence light and confocal microscopy, internalization of FITC-labeled peptide; assay type: cell-based, Candida albicans; conditions: 50 μM, 45-90 minutes, 37° C.
Protocol: (§8) The internalization of MUC7 20-mer into fungi was visualized in C. albicans and C. neoformans. Untreated cells (10^7) or cells preincubated with 20 mM sodium azide, 300 μM CCCP, 50 mM Ca^++ or 50 mM Mg^++ were then treated with 50 μM FITC-MUC7 20-mer for 45-90 minutes in 100 μl of Na phosphate buffer (10 mM, pH 7.4) at 37° C. Untreated cells were also incubated with 50 μM FITC-MUC7 20-mer at 4° C. The cells were then extensively washed with phosphate buffer, concentrated and resuspended in the same buffer. The cell suspension was then quickly mounted on slides with sealed cover-slips. Fluorescence light micrographs were made on a Nikon Optiphot microscope, with a fluorescent light source.
(§9) The intracellular localization of FITC-MUC7-20mer was investigated in a double-labeling experiment using MitoTracker Red mitochondrial probe. C. albicans and C. neoformans were incubated with 500 nM MitoTracker Red in 10 mM Na phosphate buffer, pH 7.4 for 15 minutes at room temperature, washed three times with the same buffer, and subsequently incubated with 50 μM FITC-MUC7 20-mer. After 20 min. incubation at 37° C., the suspension was washed with phosphate buffer extensively. The cell suspension was then quickly mounted on slides with sealed cover-slips. Confocal fluorescence microscopy was performed with a BioRad MRC-1024 confocal microscope system with Krypton-argon laser which outputs 488, 568 and 647 nm excitation line and Nikon upright epifluorescence microscope (Zeiss 60× oil immersion planApp objective with 1.4 numerical aperture).
(§10) The internalization of MUC7 20-mer and 12-mer-3 into fungi was visualized using FITC labeled peptides. Cells (10^7) were treated with 50 μM FITC-MUC7 20-mer or 12-mer-3 for 45-90 mins in 100 μl of Na phosphate buffer (10 mM, pH 7.4) at 37° C. The cells were then processed and visualized as described in Example 1.

C. neoformans [4] = assay: as above; assay type: cell-based, Cryptococcus neoformans; conditions: 50 μM, 45-90 minutes, 37° C.
Protocol: as §8, §9, §10

S. mutans = assay: Antibacterial (cidal) activity assay, loss of cell viability; assay type: cell-based; conditions: Streptococcus mutans, read-out: ED50 (95% confident limit)
Protocol: as §6, §7, §4

## 12-mer with arginine and lysine at position 40 and 41 replaced by alanine, SEQ ID NO.11: AASYKCLHKRCR (OTHER INFORMATION: 12-mer-2 variant of the 12-mer) [Peptide 12-mer-2]
C. neoformans [1]
  ED50 (95% confidence limit) C. neoformans: comparable to that of unaltered 12-mer

## C[C@H](NC(=O)[C@H](Cc1cnc[nH]1)NC(=O)[C@H](CO)NC(=O)[C@@H](N)CC(=O)O)C(=O)N[C@@H](CCCCN)C(=O)N[C@@H](CCCNC(=N)N)C(=O)N[C@@H](Cc1cnc[nH]1)C(=O)N[C@@H](Cc1cnc[nH]1)C(=O)NCC(=O)N[C@@H](Cc1ccc(O)cc1)C(=O)N[C@@H](CCCCN)C(=O)N[C@@H](CCCNC(=N)N)C(=O)N[C@@H](CCCCN)C(=O)N[C@@H](Cc1ccccc1)C(=O)N[C@@H](Cc1cnc[nH]1)C(=O)N[C@@H](CCC(=O)O)C(=O)N[C@@H](CCCCN)C(=O)N[C@@H](Cc1cnc[nH]1)C(=O)N[C@@H](Cc1cnc[nH]1)C(=O)N[C@@H](CO)C(=O)N[C@@H](Cc1cnc[nH]1)C(=O)N[C@@H](CCCNC(=N)N)C(=O)NCC(=O)N[C@@H](Cc1ccc(O)cc1)C(=O)O [Hsn-5, reference compound]
C. albicans [2]; C. albicans, 300 μM CCCP or 20 mM sodium azide, 2 hours
  effect of pretreatment with CCCP or sodium azide on peptide-induced killing: rescued Candida cells from killing
C. albicans [2]; C. albicans, 4° C.
  potency at 4° C.: limited potency
C. albicans [2]; C. albicans, 5 min
  Loss of Cell viability (%): 0 + 0%
C. albicans [2]; C. albicans, 15 min
  Loss of Cell viability (%): 1 + 3%
C. albicans [2]; C. albicans, 30 min
  Loss of Cell viability (%): 11 + 4%
C. albicans [2]; C. albicans, 45 min
  Loss of Cell viability (%): 34 + 2%
C. albicans [2]; C. albicans, 90 min
  Loss of Cell viability (%): 42 + 3%
C. albicans [2]; C. albicans, Na phosphate buffer, 25 μM
  Peptide-induced killing without the cations: 100%
C. neoformans [1]; C. neoformans, 300 μM CCCP or 20 mM sodium azide, 2 hours
  effect of pretreatment with CCCP or sodium azide on peptide-induced killing: unable to do the same
C. neoformans [1]; C. neoformans, 4° C.
  activity at 4° C.: hardly affected
C. neoformans [1]; C. neoformans, 5 min
  Loss of Cell viability (%): 9 ± 2%
C. neoformans [1]; C. neoformans, 15 min
  Loss of Cell viability (%): 43 + 3%
C. neoformans [1]; C. neoformans, 30 min
  Loss of Cell viability (%): 59 + 5%
C. neoformans [1]; C. neoformans, 45 min
  Loss of Cell viability (%): 64 + 1%
C. neoformans [1]; C. neoformans, 90 min
  Loss of Cell viability (%): 71 + 7%
C. neoformans [1]; C. neoformans, Na phosphate buffer, 25 μM
  Peptide-induced killing without the cations: 100%
A. actinomycetemcomitans; 100 μM
  loss of cell viability at the highest concentration tested: 24%
Fungi or bacteria
  concentration for killing bacteria relative to killing fungi: more than 10 fold

## 12-mer with positions 40, 41, 44, 48, 49 and 51 replaced by alanine, SEQ ID NO.12: AASYACLHAACA (OTHER INFORMATION: 12-mer-3 variant of the 12-mer) [Peptide 12-mer-3]
C. albicans [2]
  ED50 (95% confidence limit) C. albicans: no anticandidal activity
C. neoformans [1]
  ED50 (95% confidence limit) C. neoformans: cidal activity was diminished; also recorded: No activity
C. albicans [3]
  internalization of FITC-labeled peptide: No internalization
C. neoformans [4]
  internalization of FITC-labeled peptide: No internalization

## 12-mer with both cysteines replaced by alanine, SEQ ID NO.13: RKSYKALHKRAR (OTHER INFORMATION: 12-mer-4 variant of the 12-mer) [Peptide 12-mer-4]
C. albicans [2]
  ED50 (95% confidence limit) C. albicans: did not alter 12-mer antifungal activity
C. neoformans [1]
  ED50 (95% confidence limit) C. neoformans: did not alter 12-mer antifungal activity

## 12-mer (amino acids 40-51 of MUC7D1), SEQ ID NO.6: RKSYKCLHKRCR (OTHER INFORMATION: 12-mer; Amino acids 40-51 of the MUC7D1 peptide.) [Peptide 12-mer]
Fungi or bacteria
  cidal activity against fungi or bacteria: active against a variety of fungi and bacteria

## from the N-terminus of the 20-mer (amino acids 32-39), SEQ ID NO.10: LAHQKPFI (OTHER INFORMATION: 8-mer-N; Amino acids 32-3 9 of the MUC7D1 peptide.) [Peptide 8-mer-N]
C. albicans [2]
  ED50 (95% confidence limit) C. albicans: No activity
C. albicans [2]; listed as N-terminal 8-mer
  ED50 (95% confidence limit) C. albicans: no antifungal activity
C. neoformans [1]
  ED50 (95% confidence limit) C. neoformans: No activity
C. neoformans [1]; listed as N-terminal 8-mer
  ED50 (95% confidence limit) C. neoformans: no antifungal activity
Fungi or bacteria
  antibacterial activity: did not exhibit antibacterial activity

## [H]/N=C(/N)N[C@H]1[C@H](O)[C@@H](O)[C@H](O[C@@H]2O[C@@H](C)[C@](O)(C=O)[C@H]2O[C@@H]2O[C@@H](CO)[C@H](O)[C@@H](O)[C@@H]2NC)[C@@H](N/C(N)=N\[H])[C@@H]1O [streptomycin]
A. actinomycetemcomitans; Aggregatibacter actinomycetemcomitans, read-out: ED50 (95% confident limit)
  EC50: 2.7 µM
S. mutans
  EC50: 64 µM

Reference: patent publication US6790833B2, “Antifungal and antibacterial agents” (priority 2001, dated 2004)
